ChEMBL document CHEMBL1201862, “PubChem BioAssay data set” (2004)
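Growth conditions: 96-well plates. Treatment: test compound, 48 hours, 5 concentrations. Analysis: linear interpolation between bracketing concentrations; unreached endpoints set to highest concentration. Abbreviation: GI50, concentration required for 50% inhibition of growth.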 Active and inactive are the calls of the source. Rule as the data show it: active = GI50 up to about 1.1 µM and inactive = higher.

What was measured:
Assay in all cases: DTP human tumour cell line panel, 48 h
786-0 = test system: 786-0
A498 = test system: A498
CAKI-1 = test system: CAKI-1
DU-145 = test system: DU-145
HCT-15 = test system: HCT-15
HT-29 = test system: HT-29
Hs-578T = test system: Hs-578T
KM12 = test system: KM12
M14 = test system: M14
MDA-MB-231 = test system: MDA-MB-231
NCI-H226 = test system: NCI-H226
OVCAR-4 = test system: OVCAR-4
RXF 393 = test system: RXF 393
SK-MEL-28 = test system: SK-MEL-28
SNB-75 = test system: SNB-75
SR = test system: SR
U-251 = test system: U-251
EKVX = test system: EKVX
UO-31 = test system: UO-31
MCF7 = test system: MCF7

Measured: GI50

C=CCc1cccc2cc(C(N)=O)c(=N)oc12
inactive: 786-0 73.8 µM | A498 77.3 µM | CAKI-1 > 100 µM | DU-145 > 100 µM | HT-29 > 100 µM | Hs-578T > 10 µM | KM12 > 100 µM | M14 > 100 µM | MDA-MB-231 > 100 µM | NCI-H226 43.9 µM | OVCAR-4 > 100 µM | RXF 393 > 100 µM | SK-MEL-28 > 100 µM | SNB-75 54.7 µM | SR 40.6 µM | U-251 > 100 µM
> 100 µM: HCT-15

c1ccc(C2CC(N3CCOCC3)=Nc3ccccc3N2)cc1 (stereo unspecified)
> 100 µM: HCT-15
inactive: 786-0 > 100 µM | A498 > 100 µM | CAKI-1 > 100 µM | DU-145 > 100 µM | EKVX > 100 µM | HT-29 > 100 µM | Hs-578T > 100 µM | KM12 > 100 µM | M14 > 100 µM | MDA-MB-231 > 100 µM | NCI-H226 > 100 µM | OVCAR-4 > 100 µM | RXF 393 78.5 µM | SK-MEL-28 > 100 µM | U-251 > 100 µM | UO-31 > 100 µM

Oc1ccc(/C=N/CC2CCCN3CCCCC23)cc1 (stereo unspecified)
24.4 µM: HCT-15
inactive: 786-0 17.9 µM | A498 26.5 µM | CAKI-1 17.8 µM | DU-145 16 µM | EKVX 27.5 µM | HT-29 16.6 µM | Hs-578T 33.1 µM | KM12 16.4 µM | M14 26.5 µM | MCF7 18.3 µM | MDA-MB-231 28.8 µM | NCI-H226 21.6 µM | OVCAR-4 17.8 µM | RXF 393 20 µM | SK-MEL-28 22.5 µM | SNB-75 51.8 µM | U-251 17.6 µM | UO-31 23.1 µM

CC(N)C(C)Cc1ccccc1 (stereo unspecified)
> 100 µM: HCT-15
inactive: 786-0 > 100 µM | A498 > 100 µM | CAKI-1 > 100 µM | DU-145 > 100 µM | EKVX > 100 µM | HT-29 > 100 µM | Hs-578T 77.1 µM | KM12 > 100 µM | M14 > 100 µM | MCF7 > 100 µM | MDA-MB-231 > 100 µM | NCI-H226 > 100 µM | OVCAR-4 > 100 µM | RXF 393 > 100 µM | SK-MEL-28 > 100 µM | SNB-75 > 100 µM | U-251 > 100 µM | UO-31 > 100 µM

Cc1ccccc1NC(=O)C(=O)CC(=O)c1sc(Nc2ccccc2[N+](=O)[O-])nc1C
inactive: 786-0 21.5 µM | CAKI-1 28.4 µM | DU-145 50 µM | EKVX 34 µM | HT-29 26.7 µM | Hs-578T 40.8 µM | KM12 47.5 µM | M14 39.7 µM | MCF7 23.9 µM | MDA-MB-231 17.3 µM | NCI-H226 34.8 µM | OVCAR-4 18.2 µM | RXF 393 26.4 µM | SK-MEL-28 25.7 µM | U-251 30.3 µM | UO-31 10.4 µM
52.4 µM: HCT-15

CCOC(=O)c1c(-c2ccc(OC)cc2)c(C#N)c(=S)n(C2OC(CO)C(O)C(O)C2O)c1C (stereo unspecified)
inactive: 786-0 > 100 µM | A498 > 100 µM | CAKI-1 87.7 µM | DU-145 > 100 µM | EKVX > 100 µM | HT-29 > 100 µM | KM12 > 100 µM | M14 > 100 µM | MCF7 > 100 µM | MDA-MB-231 > 100 µM | NCI-H226 > 100 µM | OVCAR-4 > 100 µM | RXF 393 > 100 µM | SK-MEL-28 > 100 µM | SNB-75 > 100 µM | SR > 100 µM | U-251 > 100 µM | UO-31 > 100 µM
> 100 µM: HCT-15

COc1ccc(C(=O)c2[nH]c(Nc3cc(C)ccn3)c(C(=S)Nc3ccccc3)c2N)cc1
21.1 µM: HCT-15
inactive: 786-0 21 µM | A498 15.9 µM | CAKI-1 36.6 µM | DU-145 36.6 µM | EKVX 22.3 µM | HT-29 17.5 µM | KM12 13.3 µM | M14 20.5 µM | MCF7 20.4 µM | MDA-MB-231 20 µM | NCI-H226 17.1 µM | OVCAR-4 10.9 µM | RXF 393 16.9 µM | SK-MEL-28 17 µM | SNB-75 20.5 µM | SR 15.2 µM | U-251 15.3 µM | UO-31 21.8 µM

O=C(CC(C(=O)c1ccsc1)c1ccc2c(c1)OCO2)c1ccccc1 (stereo unspecified)
inactive: 786-0 > 100 µM | A498 > 100 µM | CAKI-1 > 100 µM | DU-145 > 100 µM | EKVX > 100 µM | HT-29 > 100 µM | Hs-578T > 100 µM | KM12 > 100 µM | M14 > 100 µM | MCF7 88.3 µM | NCI-H226 > 100 µM | OVCAR-4 > 100 µM | RXF 393 > 100 µM | SK-MEL-28 > 100 µM | SNB-75 > 100 µM | SR > 100 µM | U-251 > 100 µM | UO-31 > 100 µM
> 100 µM: HCT-15

NC(=O)C[S+]([O-])CC(N)C(=O)O (stereo unspecified)
> 100 µM: HCT-15
inactive: 786-0 > 100 µM | A498 > 100 µM | CAKI-1 > 100 µM | DU-145 > 100 µM | EKVX > 100 µM | HT-29 > 100 µM | Hs-578T > 100 µM | KM12 > 100 µM | M14 > 100 µM | MDA-MB-231 > 100 µM | NCI-H226 > 100 µM | OVCAR-4 > 100 µM | RXF 393 > 100 µM | SK-MEL-28 > 100 µM | SNB-75 > 100 µM | SR > 100 µM | U-251 > 100 µM | UO-31 > 100 µM

Cn1c(=O)c2nc(CCNC(=O)c3ccccc3)[nH]c2n(C)c1=O
> 100 µM: HCT-15
inactive: 786-0 > 100 µM | A498 > 100 µM | CAKI-1 > 100 µM | DU-145 > 100 µM | EKVX > 100 µM | HT-29 > 100 µM | Hs-578T > 100 µM | KM12 > 100 µM | M14 > 100 µM | MDA-MB-231 > 100 µM | NCI-H226 > 100 µM | OVCAR-4 > 100 µM | RXF 393 > 100 µM | SK-MEL-28 > 100 µM | SNB-75 > 100 µM | SR > 100 µM | U-251 > 100 µM | UO-31 > 100 µM

COc1ccc(/C=C2\CCC(C)/C(=C\c3ccc(OC)c(OC)c3)C2=O)cc1OC (stereo unspecified)
5.37 µM: HCT-15
inactive: 786-0 5.11 µM | A498 9.08 µM | CAKI-1 5.82 µM | DU-145 3.73 µM | EKVX 2.13 µM | HT-29 4.38 µM | Hs-578T 12.6 µM | KM12 2.55 µM | M14 5.38 µM | MCF7 4.85 µM | MDA-MB-231 7.8 µM | NCI-H226 4.65 µM | RXF 393 5.06 µM | SK-MEL-28 10.7 µM | U-251 5.43 µM | UO-31 8.45 µM

CN(C)c1cccc2c(S(=O)(=O)NCCN)cccc12 [DANSYL ETHYLENEDIAMINE]
> 100 µM: HCT-15
inactive: 786-0 > 100 µM | A498 23 µM | CAKI-1 > 100 µM | DU-145 > 100 µM | EKVX > 100 µM | HT-29 > 100 µM | Hs-578T > 100 µM | KM12 > 100 µM | M14 > 100 µM | MDA-MB-231 > 100 µM | NCI-H226 > 100 µM | OVCAR-4 > 100 µM | RXF 393 41.1 µM | SK-MEL-28 > 100 µM | SNB-75 4.74 µM | SR > 100 µM | U-251 > 100 µM | UO-31 98.9 µM

N#Cc1[nH]c(=S)[nH]c1N
> 100 µM: HCT-15
inactive: 786-0 > 100 µM | A498 > 100 µM | CAKI-1 > 100 µM | DU-145 > 100 µM | EKVX > 100 µM | HT-29 > 100 µM | Hs-578T 2.99 µM | MCF7 > 100 µM | NCI-H226 > 100 µM | OVCAR-4 > 100 µM | RXF 393 > 100 µM | SK-MEL-28 > 100 µM | SNB-75 > 100 µM | SR > 100 µM | U-251 > 100 µM | UO-31 > 100 µM

O=C(N/N=C(COc1ccccc1Cl)\N=C\c1ccncc1)c1ccncc1
> 100 µM: HCT-15
inactive: 786-0 > 100 µM | A498 > 100 µM | CAKI-1 > 100 µM | DU-145 > 100 µM | EKVX > 100 µM | HT-29 > 100 µM | Hs-578T > 100 µM | KM12 > 100 µM | M14 > 100 µM | MCF7 > 100 µM | MDA-MB-231 > 100 µM | OVCAR-4 > 100 µM | RXF 393 > 100 µM | SK-MEL-28 > 100 µM | SNB-75 15.9 µM | U-251 > 100 µM

CSc1nc2c(N)ncnc2n1C
inactive: 786-0 > 100 µM | A498 > 100 µM | CAKI-1 > 100 µM | DU-145 > 100 µM | EKVX > 100 µM | HT-29 > 100 µM | Hs-578T > 100 µM | KM12 > 100 µM | M14 > 100 µM | MCF7 > 100 µM | MDA-MB-231 > 100 µM | NCI-H226 > 100 µM | OVCAR-4 > 100 µM | RXF 393 > 100 µM | SK-MEL-28 > 100 µM | SNB-75 82.8 µM | U-251 > 100 µM | UO-31 > 100 µM
> 100 µM: HCT-15

Cc1cc2nc3n(c2cc1C)C(c1c(F)cccc1F)SC3 (stereo unspecified)
> 10 µM: HCT-15
inactive: 786-0 19.3 µM | CAKI-1 17.3 µM | EKVX 34.8 µM | HT-29 18.5 µM | Hs-578T 15.4 µM | KM12 > 10 µM | M14 19.8 µM | MCF7 17.5 µM | MDA-MB-231 17.9 µM | NCI-H226 10.5 µM | OVCAR-4 22.9 µM | RXF 393 20.8 µM | SK-MEL-28 19.1 µM | SNB-75 11.6 µM | SR 12.7 µM | U-251 16.1 µM | UO-31 > 10 µM
